Laboratory results published in patent US20130040853A1, “Context Specific Genetic Screen Platform to Aid in Gene Discovery and Target Validation” (Dana-Farber Cancer Institute Inc., priority 2010, published 2013).

Test system: HMEL-BRAF^V600E melanocytes
Assay: In vivo functional genetic screen and secondary validation: kinase-transduced HMEL cells implanted in nude mice
Set-up: species or system human
Source text: A ‘cancer-kinase’ library was constructed containing sequence-verified ORFs in a lentiviral vector for 110 of the 120 kinases reported to sustain somatic driver mutations in diverse human cancers. This library was pooled and introduced into a human HMEL-BRAF^V600E melanocyte model system engineered with BRAF^V600E and TERT as well as p53DD and CDK4-R24C to inactivate the […] pathways, respectively. The HMEL-BRAF^V600E melanocyte profile, while representing the most common clinically-definable genetic profile in human melanoma, is insufficient to drive efficient melanoma formation following orthotopic transplantation in the skin (penetrance of 10% and latency of 26 weeks). In contrast, 40% of HMEL-BRAF^V600E melanocytes transduced with the cancer kinase pools developed tumors with an average latency of 13 weeks (range 10-18 weeks).
In vivo functional genetic screens: Lentivirus were prepared by co-transfecting 293T cells with individual vector backbones and standard virus packaging systems for subsequent collection of viral supernatants. Viral supernatants were then pooled randomly to generate 8 pools of high-titer lentiviral stocks. HMEL cells were transduced with either GFP control lentivirus or each representative lentiviral pool in the presence of 8 ug/ml polybrene (Company). […]

JNK2 WT: wild type MAPK9/JNK2 kinase ORF expressed in HMEL cells
Tumorigenicity in vivo (WT or mutant kinase expressed individually): YES
tumor penetrance (secondary validation, kinase transduced individually into HMEL-BRAF^V600E melanocytes): 50%
